Measurements from ChEMBL document CHEMBL1126867, “Antipicornavirus activity of tetrazole analogues related to disoxaril” (1993).
Converted amounts (≈) assume the structure as drawn. Values belong to the compound of their own block, whether it stands above or below them. The source made the active and inactive calls. No cut-off for these calls is given here.

Columns and labels:
rhinovirus B14 [1] = assay: In vitro antiviral activity against human rhinovirus-14 using plaque reduction assay; format: functional, human rhinovirus type 14; conditions: Rhinovirus B
Human rhinovirus 1A [2] = assay: In vitro antiviral activity against human rhinovirus-1A using plaque reduction assay; format: functional
Human rhinovirus sp. [3] = assay: Minimum inhibitory concentration which inhibits 80% of serotypes was determined; format: functional
Human rhinovirus sp. [4] = assay: In vitro antiviral activity against human rhinovirus-15 serotype; format: functional
Human rhinovirus sp. [5] = assay: In vitro antiviral activity against human rhinovirus 67 serotype; format: functional
Human rhinovirus sp. [6] = assay: In vitro antiviral activity against human rhinovirus-25 serotype; format: functional
Human rhinovirus sp. [7] = assay: In vitro antiviral activity against human rhinovirus 2 serotype; format: functional
Human rhinovirus sp. [8] = assay: In vitro antiviral activity against human rhinovirus-30 serotype; format: functional
Human rhinovirus sp. [9] = assay: In vitro antiviral activity against human rhinovirus-41 serotype; format: functional
Human rhinovirus sp. [10] = assay: In vitro antiviral activity against human rhinovirus 50 serotype; format: functional
Human rhinovirus sp. [11] = assay: (§1) In vitro antiviral activity against human rhinovirus 1A serotype; format: functional
Human rhinovirus sp. [12] = assay: In vitro antiviral activity against human rhinovirus 1B serotype; format: functional
Human rhinovirus sp. [13] = assay: In vitro antiviral activity against human rhinovirus-22 serotype; format: functional
Human rhinovirus sp. [14] = assay: In vitro antiviral activity against human rhinovirus 6 serotype; format: functional
Human rhinovirus sp. [15] = assay: In vitro antiviral activity against human rhinovirus 89 serotype; format: functional
Human rhinovirus sp. [16] = assay: In vitro antiviral activity against human rhinovirus 86 serotype; format: functional
Human rhinovirus sp. [17] = assay: In vitro antiviral activity against human rhinovirus 14 serotype; format: functional
Human rhinovirus sp. [18] = assay: In vitro antiviral activity against human rhinovirus-21 serotype; format: functional
Human rhinovirus 1A [19] = assay: In vitro antiviral activity against human rhinovirus-1A using plaque reduction assay; not active; format: functional, organism-based
[20] = tested on: Human rhinovirus 1B (rhinovirus A); assay: In vitro antiviral activity against human rhinovirus 1B serotype
Human rhinovirus 1A [21] = assay: as §1; format: functional
rhinovirus B14 [22] = assay: In vitro antiviral activity against human rhinovirus-14 using plaque reduction assay; not active; format: functional, organism-based; conditions: human rhinovirus type 14

SMILES: Cc1cc(-c2nnn(C)n2)cc(C)c1OCCCc1cc(C2CC2)no1
MIC50 (rhinovirus B14 [1]): 0.48 µM (≈ 0.17 µg/mL)
MIC50 (Human rhinovirus 1A [2]): 0.19 µM (≈ 0.0672 µg/mL)
MIC80 (Human rhinovirus sp. [3]): 0.48 µM (≈ 0.17 µg/mL)

SMILES: COCCOCOCc1cc(CCCCCOc2c(C)cc(-c3nnn(C)n3)cc2C)on1
MIC50 (rhinovirus B14 [1]): 0.33 µM (≈ 0.152 µg/mL)
MIC50 (Human rhinovirus 1A [2]): 2.89 µM (≈ 1.33 µg/mL)

SMILES: CCCCc1cc(CCCOc2c(C)cc(-c3nnn(C)n3)cc2C)on1
MIC50 (rhinovirus B14 [1]): 0.11 µM (≈ 0.0406 µg/mL)
MIC50 (Human rhinovirus 1A [2]): 0.54 µM (≈ 0.2 µg/mL)
MIC80 (Human rhinovirus sp. [3]): 0.54 µM (≈ 0.2 µg/mL)

SMILES: CCCOc1cc(CCCOc2c(C)cc(-c3nnn(C)n3)cc2C)on1
MIC50 (rhinovirus B14 [1]): 0.08 µM (≈ 0.0297 µg/mL)
MIC50 (Human rhinovirus 1A [2]): 0.39 µM (≈ 0.145 µg/mL)
MIC80 (Human rhinovirus sp. [3]): 0.6 µM (≈ 0.223 µg/mL)

SMILES: Cc1cc(-c2nnn(C)n2)cc(C)c1OCCCc1cc(CCO)no1
MIC50 (rhinovirus B14 [1]): 2 µM (≈ 0.715 µg/mL)
MIC50 (Human rhinovirus 1A [2]): 0.14 µM (≈ 0.05 µg/mL)
MIC80 (Human rhinovirus sp. [3]): 1.09 µM (≈ 0.39 µg/mL)

SMILES: Cc1cc(CCCCCOc2c(Cl)cc(C3=NCCO3)cc2Cl)on1 [WIN-54954]
MIC (Human rhinovirus sp. [4]): 0.41 µM (≈ 0.157 µg/mL)
MIC (Human rhinovirus sp. [5]): 0.18 µM (≈ 0.069 µg/mL)
MIC [20]: 0.17 µM (≈ 0.0652 µg/mL)
MIC (Human rhinovirus sp. [6]): 0.29 µM (≈ 0.111 µg/mL)
MIC (Human rhinovirus sp. [7]): 0.02 µM (≈ 0.00767 µg/mL)
MIC (Human rhinovirus sp. [8]): 0.09 µM (≈ 0.0345 µg/mL)
MIC (Human rhinovirus sp. [9]): 0.89 µM (≈ 0.341 µg/mL)
MIC (Human rhinovirus sp. [10]): 0.3 µM (≈ 0.115 µg/mL)
MIC (Human rhinovirus 1A [21]): 2.51 µM (≈ 0.962 µg/mL)
MIC (Human rhinovirus sp. [13]): 0.02 µM (≈ 0.00767 µg/mL)
MIC (Human rhinovirus sp. [14]): 0.23 µM (≈ 0.0882 µg/mL)
MIC (Human rhinovirus sp. [15]): 0.02 µM (≈ 0.00767 µg/mL)
MIC (Human rhinovirus sp. [3]): 0.41 µM (≈ 0.157 µg/mL)
MIC (Human rhinovirus sp. [16]): 0.21 µM (≈ 0.0805 µg/mL)
MIC (Human rhinovirus sp. [17]): 1.2 µM (≈ 0.46 µg/mL)
MIC (Human rhinovirus sp. [18]): 0.02 µM (≈ 0.00767 µg/mL)

SMILES: Cc1cc(-c2nnn(C)n2)cc(C)c1OCCCCCc1cc(C(=O)O)no1
MIC50 (rhinovirus B14 [1]): 30.4 µM (≈ 11.7 µg/mL)
MIC50 (Human rhinovirus 1A [2]): 1.4 µM (≈ 0.54 µg/mL)

SMILES: Cc1cc(CCCCCOc2c(C)cc(-c3nnn(CCO)n3)cc2C)on1
MIC50 (rhinovirus B14 [1]): 4.35 µM (≈ 1.68 µg/mL)
MIC50 (Human rhinovirus 1A [19]): inactive

More lines, now with the values ahead:

MIC50 (rhinovirus B14 [1]): 0.73 µM (≈ 0.259 µg/mL)
MIC50 (Human rhinovirus 1A [2]): 0.28 µM (≈ 0.0995 µg/mL)
MIC80 (Human rhinovirus sp. [3]): 0.73 µM (≈ 0.259 µg/mL)
SMILES: Cc1cc(-c2nnn(C)n2)cc(C)c1OCCCc1cc(C(C)C)no1

MIC (Human rhinovirus sp. [4]): 0.68 µM (≈ 0.242 µg/mL)
MIC (Human rhinovirus sp. [5]): 0.22 µM (≈ 0.0782 µg/mL)
MIC50 (rhinovirus B14 [1]): 0.12 µM (≈ 0.0427 µg/mL)
MIC (Human rhinovirus sp. [6]): 0.006 µM (≈ 0.00213 µg/mL)
MIC (Human rhinovirus sp. [7]): 0.04 µM (≈ 0.0142 µg/mL)
MIC (Human rhinovirus sp. [8]): 0.2 µM (≈ 0.0711 µg/mL)
MIC (Human rhinovirus sp. [9]): 0.93 µM (≈ 0.331 µg/mL)
MIC (Human rhinovirus sp. [10]): 0.09 µM (≈ 0.032 µg/mL)
MIC (Human rhinovirus sp. [11]): 0.12 µM (≈ 0.0427 µg/mL)
MIC (Human rhinovirus sp. [12]): 0.03 µM (≈ 0.0107 µg/mL)
MIC (Human rhinovirus sp. [13]): 0.08 µM (≈ 0.0284 µg/mL)
MIC (Human rhinovirus sp. [14]): 0.15 µM (≈ 0.0533 µg/mL)
MIC (Human rhinovirus sp. [15]): 0.02 µM (≈ 0.00711 µg/mL)
MIC50 (Human rhinovirus 1A [2]): 0.12 µM (≈ 0.0427 µg/mL)
MIC (Human rhinovirus sp. [3]): 0.2 µM (≈ 0.0711 µg/mL)
MIC80 (Human rhinovirus sp. [3]): 0.2 µM (≈ 0.0711 µg/mL)
MIC (Human rhinovirus sp. [16]): 0.12 µM (≈ 0.0427 µg/mL)
MIC (Human rhinovirus sp. [17]): 0.12 µM (≈ 0.0427 µg/mL)
MIC (Human rhinovirus sp. [18]): 0.02 µM (≈ 0.00711 µg/mL)
SMILES: CCCc1cc(CCCOc2c(C)cc(-c3nnn(C)n3)cc2C)on1

MIC50 (rhinovirus B14 [1]): 0.13 µM (≈ 0.0483 µg/mL)
MIC50 (Human rhinovirus 1A [19]): inactive
SMILES: CCC(O)c1cc(CCCOc2c(C)cc(-c3nnn(C)n3)cc2C)on1 (stereo not given)

MIC50 (rhinovirus B14 [1]): 1.4 µM (≈ 0.5 µg/mL)
MIC50 (Human rhinovirus 1A [2]): 0.14 µM (≈ 0.05 µg/mL)
MIC80 (Human rhinovirus sp. [3]): 1.1 µM (≈ 0.393 µg/mL)
SMILES: Cc1cc(-c2nnn(C)n2)cc(C)c1OCCCc1cc(C(C)O)no1 (stereo not given)

MIC50 (rhinovirus B14 [1]): 1.4 µM (≈ 0.481 µg/mL)
MIC50 (Human rhinovirus 1A [2]): 0.11 µM (≈ 0.0378 µg/mL)
MIC80 (Human rhinovirus sp. [3]): 0.33 µM (≈ 0.113 µg/mL)
SMILES: COc1cc(CCCOc2c(C)cc(-c3nnn(C)n3)cc2C)on1

MIC50 (rhinovirus B14 [1]): 0.45 µM (≈ 0.16 µg/mL)
MIC50 (Human rhinovirus 1A [2]): 0.34 µM (≈ 0.121 µg/mL)
MIC80 (Human rhinovirus sp. [3]): 0.39 µM (≈ 0.139 µg/mL)
SMILES: Cc1cc(CCCCCOc2c(C)cc(-c3nnn(C)n3)cc2C)on1

MIC50 (rhinovirus B14 [22]): inactive
MIC50 (Human rhinovirus 1A [19]): inactive
SMILES: Cc1cc(COc2c(C)cc(-c3nnn(C)n3)cc2C)on1

MIC50 (rhinovirus B14 [1]): 3 µM (≈ 1.15 µg/mL)
MIC50 (Human rhinovirus 1A [2]): 0.76 µM (≈ 0.291 µg/mL)
MIC80 (Human rhinovirus sp. [3]): 1.6 µM (≈ 0.614 µg/mL)
SMILES: Cc1cc(CCCCCCCOc2c(C)cc(-c3nnn(C)n3)cc2C)on1

MIC50 (rhinovirus B14 [1]): 0.1 µM (≈ 0.0357 µg/mL)
MIC50 (Human rhinovirus 1A [2]): 0.15 µM (≈ 0.0536 µg/mL)
MIC80 (Human rhinovirus sp. [3]): 0.7 µM (≈ 0.25 µg/mL)
SMILES: CCOc1cc(CCCOc2c(C)cc(-c3nnn(C)n3)cc2C)on1

MIC50 (rhinovirus B14 [22]): inactive
MIC50 (Human rhinovirus 1A [2]): 6.5 µM (≈ 2.4 µg/mL)
SMILES: CCCCn1nnc(-c2cc(C)c(OCCCc3cc(C)no3)c(C)c2)n1

MIC50 (rhinovirus B14 [1]): 3.4 µM (≈ 1.17 µg/mL)
MIC50 (Human rhinovirus 1A [2]): 0.2 µM (≈ 0.0687 µg/mL)
MIC80 (Human rhinovirus sp. [3]): 3.4 µM (≈ 1.17 µg/mL)
SMILES: Cc1cc(-c2nnn(C)n2)cc(C)c1OCCCc1cc(CO)no1
